{
  "source": "patent US6566541B2",
  "about": "“Type 2 methionine aminopeptidase (MetAP2) inhibitors and uses thereof” (Massachusetts Institute of Technology, priority 1997, dated 2003)",
  "key": {"[1]": {"test_system": "bovine aortic endothelial cell (BAEC)", "experiment": "bovine aortic endothelial cell (BAEC) proliferation assay (MTT)", "type": "cell-based", "conditions": "for IC50: Bos taurus; for activity in the BAEC proliferation assay: result in words", "procedure": "BAEC were trypsinized and plated into 96-well plates at a density of 2000 cells per well. After the cells adhered to the plate, compounds dissolved in ethanol (final concentration of 0.5%) were added to the cultures.\n(§1) Synthesis was according to the procedures as described in Mauri et al., Chem. Pharm. Bull. […] Bull."}, "recombinant human MetAP2 [2]": {"target": "T1, recombinant human MetAP2 (Homo sapiens, UniProt P50579)", "T1 construct": "made in house; host or cells: insect cells", "T1 sequence (P50579 whole entry)": "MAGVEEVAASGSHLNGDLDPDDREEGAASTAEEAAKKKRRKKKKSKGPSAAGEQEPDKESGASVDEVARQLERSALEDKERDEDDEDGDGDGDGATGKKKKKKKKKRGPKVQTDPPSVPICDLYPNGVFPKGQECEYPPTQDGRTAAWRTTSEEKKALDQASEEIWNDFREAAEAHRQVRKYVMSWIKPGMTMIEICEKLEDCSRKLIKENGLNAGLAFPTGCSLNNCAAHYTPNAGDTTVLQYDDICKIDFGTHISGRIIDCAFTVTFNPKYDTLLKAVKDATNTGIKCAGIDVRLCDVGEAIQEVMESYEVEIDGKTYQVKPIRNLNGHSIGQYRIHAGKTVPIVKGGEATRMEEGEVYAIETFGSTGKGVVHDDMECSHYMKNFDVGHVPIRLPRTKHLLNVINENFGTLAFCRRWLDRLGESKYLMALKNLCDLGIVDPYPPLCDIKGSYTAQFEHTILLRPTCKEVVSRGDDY", "experiment": "methionine aminopeptidase activity of MetAP2 (Met-Gly-Met-Met substrate)", "type": "biochemical", "procedure": "Recombinant human MetAP2 was expressed and purified from insect cells as described in Li and Chang, Biochem. Biophys. Res. Commun. […] Released methionine was quantified at different time points (0, 2, 3 and 5 min) using the method of Zuo et al., Mol. Gen.\nas §1"}, "[3]": {"test_system": "Wild-type [YPH500] yeast cells", "experiment": "yeast growth on YEPD plates containing drug, wild type", "type": "cell-based, Saccharomyces cerevisiae", "conditions": "50 nM drug, YEPD plate, 30° C., four days", "description": "(§2) […]. […] […]."}, "[4]": {"test_system": "map1 null [XLP101 (map1::HIS3)] yeast cells", "experiment": "yeast growth on YEPD plates containing drug, map1 null", "type": "cell-based, Saccharomyces cerevisiae", "conditions": "50 nM drug, YEPD plate, 30° C., four days", "description": "as §2"}, "recombinant yeast MetAP1": {"target": "T2, recombinant yeast MetAP1 (Saccharomyces cerevisiae, UniProt Q01662)", "T2 sequence (Q01662 1-387)": "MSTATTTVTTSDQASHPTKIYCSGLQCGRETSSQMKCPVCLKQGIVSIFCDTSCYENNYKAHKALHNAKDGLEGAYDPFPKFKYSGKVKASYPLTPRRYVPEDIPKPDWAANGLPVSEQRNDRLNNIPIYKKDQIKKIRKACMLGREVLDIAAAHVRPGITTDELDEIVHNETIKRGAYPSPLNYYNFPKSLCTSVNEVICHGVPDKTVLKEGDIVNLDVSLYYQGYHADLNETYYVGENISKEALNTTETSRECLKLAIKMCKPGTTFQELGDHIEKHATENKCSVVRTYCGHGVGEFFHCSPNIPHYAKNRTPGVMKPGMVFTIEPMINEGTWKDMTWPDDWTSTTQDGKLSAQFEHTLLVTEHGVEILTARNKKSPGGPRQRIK", "experiment": "MetAP activity of recombinant yeast MetAP1 in vitro", "type": "biochemical", "conditions": "concentrations up to 10 μM"}, "recombinant yeast MetAP2": {"target": "recombinant yeast MetAP2 (Saccharomyces cerevisiae, UniProt P38174)", "sequence (P38174 whole entry)": "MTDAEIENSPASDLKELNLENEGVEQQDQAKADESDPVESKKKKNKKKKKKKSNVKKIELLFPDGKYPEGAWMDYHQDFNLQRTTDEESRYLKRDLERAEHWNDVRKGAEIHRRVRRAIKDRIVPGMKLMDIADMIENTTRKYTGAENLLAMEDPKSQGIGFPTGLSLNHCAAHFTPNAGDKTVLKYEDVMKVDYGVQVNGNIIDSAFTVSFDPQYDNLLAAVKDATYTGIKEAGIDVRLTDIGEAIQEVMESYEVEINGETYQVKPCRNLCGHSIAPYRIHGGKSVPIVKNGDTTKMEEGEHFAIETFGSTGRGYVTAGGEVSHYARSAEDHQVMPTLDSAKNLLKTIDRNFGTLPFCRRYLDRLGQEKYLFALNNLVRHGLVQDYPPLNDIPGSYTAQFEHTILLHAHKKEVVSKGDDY", "experiment": "MetAP activity of recombinant yeast MetAP2 in vitro", "type": "biochemical", "conditions": "concentrations as low as 5 nM"}, "recombinant human MetAP2 [5]": {"target": "T1, recombinant human MetAP2", "experiment": "MetAP2 inhibition of eIF-2α phosphorylation by heme-regulated inhibitor kinase (HRI)", "type": "biochemical", "conditions": "compared with unbound MetAP2", "procedure": "Modified or control MetAP2 (0.6 μg) was incubated with purified eIF-2 (0.3 μg) in 20 mM Tris·HCl, pH 7.8, 40 mM KCl, and 2 mM MgAC2 on ice for 1 hr. Recombinant HRI (0.25 ng) and [γ-^32P]ATP were then added to a final total volume of 20 μl and the reaction mixture was further incubated at 37° C. for 10 min. The labeled eIF-2α was analyzed by 10% SDS-PAGE followed by autoradiography. The phosphorylated bands were quantified by NIH Image 1.60 software."}, "[6]": {"test_system": "map2 null [XLP201 (map2::URA3)] yeast cells", "conditions": "50 nM drug, YEPD plate, 30° C., four days", "procedure": "To further test the specificity of these drugs, both wild type and mutant yeast strains lacking either MetAP1 (map1) or MetAP2 (map2) were plated onto media containing the two drugs. […] The plates were incubated at 30° C. for four days."}, "67 kD (p67)": {"target": "T3, 67 kD (p67) (Bos taurus, UniProt Q3ZC89)", "T3 construct": "endogenous in cells; host or cells: BAEC (bovine aortic endothelial cells) extract", "T3 sequence (Q3ZC89 whole entry)": "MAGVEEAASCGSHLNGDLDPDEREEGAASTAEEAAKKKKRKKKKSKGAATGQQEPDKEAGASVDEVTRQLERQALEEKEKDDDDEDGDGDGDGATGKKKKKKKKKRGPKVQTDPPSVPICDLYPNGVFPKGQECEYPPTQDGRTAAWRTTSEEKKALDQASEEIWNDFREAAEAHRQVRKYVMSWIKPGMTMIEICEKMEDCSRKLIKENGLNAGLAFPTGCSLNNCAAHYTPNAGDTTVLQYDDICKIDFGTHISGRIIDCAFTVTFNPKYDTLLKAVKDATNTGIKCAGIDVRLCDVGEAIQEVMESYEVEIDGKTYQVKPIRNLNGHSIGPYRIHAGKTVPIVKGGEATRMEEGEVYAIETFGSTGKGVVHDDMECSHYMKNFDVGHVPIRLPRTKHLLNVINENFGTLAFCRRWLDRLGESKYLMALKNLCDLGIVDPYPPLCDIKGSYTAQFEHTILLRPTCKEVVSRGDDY", "experiment": "competition of ovalicin photoaffinity labeling in BAEC extracts", "type": "binding, bovine", "conditions": "BAEC extract preincubated with excess cold competitor", "procedure": "Photoaffinity labeling was performed as follows. […] Reaction mixtures were incubated on ice in the dark for 1 hr and then irradiated at 254 nm (0.2 J/cm^2). Reactions were quenched by adding 1.5 μl β-mercaptoethanol followed by 7.5 μl 5×SDS sample buffer and heated in a boiling water bath for 3 min. Samples were analyzed by 10% SDS/PAGE, followed by autoradiography."}, "recombinant human MetAP2 [7]": {"target": "T1, recombinant human MetAP2", "experiment": "covalent binding to MetAP2 (biotin conjugates, denaturing SDS-PAGE, streptavidin-HRP)", "conditions": "drug-protein complex maintained under denaturing conditions", "protocol": "The protein samples were boiled in a sample buffer containing SDS and β-mercaptoethanol, subjected to SDS-PAGE, and transferred to nitrocellulose.\n100 ng of recombinant human MetAP2 was incubated in 40 μl binding buffer (20 mM Tris·HCl, pH 7.1, 100 mM KCl, 0.2% Triton X-100) in the presence or absence of competitors for 1 hr followed by incubation with the biotin conjugates (1 μM) at 4° C. for 2 hr. 40 μl of 2×SDS sample buffer containing β-mercaptoethanol was added and the samples were boiled for 10 min. Following SDS-PAGE, the samples were transferred to nitrocellulose at 50V for 1 hr at 4° C. and blocked overnight in blocking solution (5% BSA, 2% Nonfat milk, 0.02% NaN3 in PBS). The membrane was incubated with rabbit anti-human MetAP2 antibodies (1:500) for 1 hr at room temperature, followed by incubation with sheep anti-rabbit IgG-HRP or incubated with streptavidin-HRP (1:1000) for 1 hr and visualized with the chemilluminescent ECL kit (Amersham, Arlington Heights, Ill.), as per manufacturer's instructions."}, "p67 (MetAP2)": {"target": "p67 (MetAP2) (Mus musculus, UniProt O08663)", "sequence (O08663 whole entry)": "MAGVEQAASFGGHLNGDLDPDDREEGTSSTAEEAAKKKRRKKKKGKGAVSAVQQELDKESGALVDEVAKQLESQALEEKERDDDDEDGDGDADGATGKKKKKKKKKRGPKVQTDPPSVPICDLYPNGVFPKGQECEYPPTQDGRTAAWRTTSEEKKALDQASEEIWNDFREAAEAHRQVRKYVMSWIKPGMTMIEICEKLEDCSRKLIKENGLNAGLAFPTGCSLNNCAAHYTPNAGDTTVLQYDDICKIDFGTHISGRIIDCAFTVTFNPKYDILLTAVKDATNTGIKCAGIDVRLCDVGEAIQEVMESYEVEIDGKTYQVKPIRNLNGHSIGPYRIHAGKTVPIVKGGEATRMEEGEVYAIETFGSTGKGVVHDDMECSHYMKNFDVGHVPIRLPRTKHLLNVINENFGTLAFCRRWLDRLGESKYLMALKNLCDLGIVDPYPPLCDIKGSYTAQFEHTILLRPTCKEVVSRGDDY"}, "[8]": {"conditions": "BAEC proliferation, average of at least three experiments, read-out: Proliferation IC50"}, "[9]": {"conditions": "MetAP2 enzymatic activity, average of at least three experiments, read-out: MetAP2 IC50"}, "[10]": {"conditions": "BAEC, read-out: Proliferation IC50 (nM)"}, "[11]": {"conditions": "MetAP2 IC50 (nM), MetAP2 enzymatic activity, average of at least three experiments"}},
  "note": "Like-named read-outs stand apart in the source and are kept apart here.",
  "data": [
    {"compound": "COC1C(O)CCC(O)(CSC)C1(O)C1(C)OC1CC=C(C)C", "note": "[FOS-201, (1R,2S,3R,4R)-1-Methylthiomethylene-2-[(1′S,2′S)-1′,2′-epoxy-1′,5′-dimethyl-4′hexenyl]-3-methoxycyclohexane-1,2,4-triol]", "values": [
      {"measurement": "IC50", "setting": "[1]; [8]", "value": "56 ± 34", "unit": "nM"},
      {"measurement": "IC50", "setting": "recombinant human MetAP2 [2]; [9]", "value": "45 ± 12", "unit": "nM"}
    ]},
    {"compound": "CO[C@@H]1C(=O)CC[C@]2(CO2)[C@H]1[C@@]1(C)O[C@@H]1CC=C(C)C", "note": "[FOS-72, (3R,4S,5S)-4-[(1′R,2′S)-1′,2′-Epoxy-1′,5′-dimethyl-4′-hexenyl]-5-methoxy-1-oxaspiror[2.5]octan-6-one]", "values": [
      {"measurement": "IC50", "setting": "[1]; [10]", "value": "0.013 ± 0.0015", "unit": "nM"},
      {"measurement": "IC50", "setting": "recombinant human MetAP2 [2]; [9]", "value": "6 ± 2", "unit": "nM"}
    ]},
    {"compound": "CO[C@@H]1[C@H](OC(=O)NCCNC(=O)CCc2ccc(O)cc2)CC[C@]2(CO2)[C@@]1(O)C1(C)O[C@@H]1CC=C(C)C", "note": "(some centres unmarked) [photoaffinity label mimic]", "values": [
      {"measurement": "activity in the BAEC proliferation assay", "setting": "[1]", "value": "retained significant, albeit decreased, activity"}
    ]},
    {"compound": "CO[C@@H]1[C@H](O)CC[C@]2(CO2)[C@@]1(O)[C@@]1(C)O[C@@H]1CC=C(C)C", "note": "[FOS-34, (3S,4R,5R,6R)-4-[(1′S,2′S)-1′,2′-Epoxy-1′,5′-dimethyl-4′-hexenyl]-5-methoxy-1-oxaspiror[2.5]octane-4,6-diol]", "values": [
      {"measurement": "IC50", "setting": "[1]; [10]", "value": "2.2 ± 1.4", "unit": "nM"},
      {"measurement": "IC50", "setting": "recombinant human MetAP2 [2]; [11]", "value": "4 ± 1", "unit": "nM"}
    ]},
    {"compound": "CO[C@@H]1C(=O)CC[C@]2(CO2)[C@@]1(O)[C@@]1(C)O[C@@H]1CC=C(C)C", "note": "[Ovalicin]", "values": [
      {"measurement": "growth of wild type yeast", "setting": "[3]", "value": "resistant"},
      {"measurement": "growth of the map1 mutant", "setting": "[4]", "value": "completely inhibited"},
      {"measurement": "inhibition of MetAP activity of the type 1 enzyme", "setting": "recombinant yeast MetAP1", "value": "No inhibition"},
      {"measurement": "inhibition of the yeast MetAP2 enzyme", "setting": "recombinant yeast MetAP2", "value": "completely inhibited"}
    ]},
    {"compound": "CO[C@@H]1[C@H](OC(=O)NC(=O)CCl)CC[C@]2(CO2)[C@H]1[C@@]1(C)O[C@@H]1CC=C(C)C", "note": "[AGM-1470]", "values": [
      {"measurement": "IC50", "setting": "[1]; [8]", "value": "0.037 ± 0.0024", "unit": "nM"},
      {"measurement": "IC50", "setting": "recombinant human MetAP2 [2]; IC50, methionine aminopeptidase activity of MetAP2, estimated, 1 nM of recombinant human MetAP2 used in the assay", "value": "~1", "unit": "nM"},
      {"measurement": "IC50", "setting": "recombinant human MetAP2 [2]; [11]", "value": "1 ± 0.3", "unit": "nM"},
      {"measurement": "MetAP2 bound by drug: inhibiting phosphorylation of eIF-2α by HRI", "setting": "recombinant human MetAP2 [5]", "value": "as effective as unbound MetAP2"},
      {"measurement": "growth of wild type yeast", "setting": "[3]", "value": "resistant"},
      {"measurement": "growth of the map1 mutant", "setting": "[4]", "value": "completely inhibited"},
      {"measurement": "growth of map2 mutant yeast", "setting": "[6]", "value": "resistant"},
      {"measurement": "inhibition of MetAP activity of the type 1 enzyme", "setting": "recombinant yeast MetAP1", "value": "No inhibition"},
      {"measurement": "inhibition of the yeast MetAP2 enzyme", "setting": "recombinant yeast MetAP2", "value": "completely inhibited"},
      {"measurement": "effect on p67 labeling by ovalicin photoaffinity probe", "setting": "67 kD (p67)", "value": "abrogated p67 labeling"},
      {"measurement": "mode of binding to MetAP2", "setting": "recombinant human MetAP2 [7]", "value": "bound to MetAP2 covalently"},
      {"measurement": "competition of band reacting with anti-human MetAP2 antibodies", "setting": "p67 (MetAP2); Western blot of protein retained by biotin-fumagillin and biotin-ovalicin conjugates", "value": "elimination of the cross-reacting band"},
      {"measurement": "p67 retention by biotin-ovalicin conjugate on immobilized streptavidin", "setting": "p67 (MetAP2); mouse embryo extract, 50 μM competitor", "value": "sensitive"},
      {"measurement": "competition of p67 binding by biotin-fumagillin", "setting": "p67 (MetAP2); mouse embryo extract, 50 μM competitor, silver stain", "value": "competed"}
    ]},
    {"compound": "COC1C(OC(=O)NCCCCCCCCNC(=O)CCCCC2SCC3NC(=O)NC32)CCC2(CO2)C1C1(C)OC1CC=C(C)C", "note": "(centres unmarked) [biotin-fumagillin]", "values": [
      {"measurement": "activity in the BAEC proliferation assay", "setting": "[1]", "value": "retain significant activity"}
    ]},
    {"compound": "COC1C(OC(=O)NC(=O)CCl)CCC(O)(CSC)C1(O)C1(C)OC1CC=C(C)C", "note": "[FOS-67, (1R,2S,3R,4R)-1-Methylthiomethylene-2-[(1′S,2′S)-1′,2′-epoxy-1′,5′-dimethyl-4′-hexenyl]-3-methoxy-4-O-(N-chloroacetyl)carbamoyl-cyclohexane-1,2,4-triol]", "values": [
      {"measurement": "IC50", "setting": "[1]; [8]", "value": "40 ± 4", "unit": "nM"},
      {"measurement": "IC50", "setting": "recombinant human MetAP2 [2]; [9]", "value": "400 ± 200", "unit": "nM"}
    ]},
    {"compound": "CO[C@@H]1[C@H](OC(=O)NC(=O)CCl)CC[C@]2(CO2)[C@@]1(O)[C@@]1(C)O[C@@H]1CC=C(C)C", "note": "[FOS-68, (3S,4R,5R,6R)-4-[(1′S,2′S)-1′,2′-Epoxy-1′,5′-dimethyl-4′-hexenyl]-5-methoxy-6-O(N-chloro-acetyl)carbamoyl-1-oxaspiror[2.5]octane-4,6-diol]", "values": [
      {"measurement": "IC50", "setting": "[1]; [8]", "value": "0.46 ± 0.26", "unit": "nM"},
      {"measurement": "IC50", "setting": "recombinant human MetAP2 [2]; [9]", "value": "2 ± 0.8", "unit": "nM"}
    ]},
    {"compound": "CO[C@@H]1[C@H](OC(=O)CCCCl)CC[C@]2(CO2)[C@@]1(O)[C@@]1(C)O[C@@H]1CC=C(C)C", "note": "[FOS-69, (3S,4R,5R,6R)-4-[(1′S,2′S)-1′,2′-Epoxy-1′5′-dimethyl-4′-hexenyl]-5-methoxy-6-O(4″chlorobutyryl)-1-oxaspiror[2.5]octane-4,6-diol]", "values": [
      {"measurement": "IC50", "setting": "[1]; [8]", "value": "0.31 ± 0.066", "unit": "nM"},
      {"measurement": "IC50", "setting": "recombinant human MetAP2 [2]; [11]", "value": "0.1 ± 0.03", "unit": "nM"}
    ]}
  ]
}
